The record followed here is patent US6541256B1, “Growth medium for human corneal endothelial cells” (The Schepens Eye Research Institute, Inc., priority 1999, dated 2003).

The test system of this assay is endothelial "ionic pump". The experiment in a line: pump function tested by pachymetry of transplanted corneas after exposure to ouabain. More on the design: species or system human. Particulars: 200 μM ouabain. As to the method: Corneas from donors (52-80 years old) were obtained from an eye bank. Descemet's membrane was stripped and endothelial cells were removed by mild EDTA treatment. Cells, cultured in the preferred formulation of the culture medium, were identified by RT-PCR of collagen type VIII and keratin-12 and by morphology. Cells (2.5×10^5) were seeded onto denuded Descemet's membrane from a second donor cornea. The cornea was incubated in culture for up to 1 month. Cell-cell contact of transplanted cells was evaluated by ZO-1 staining. Morphology and ultrastructure were examined by transmission electron microscopy. Pump function was tested by pachymetry after exposure to 200 μM ouabain. Cultured cells were identified as corneal endothelium by characteristic mRNA expression and morphology. The success rate of primary cultures, obtained from corneas stored <5 days after death, was about 99%. […] With time, cell-substrate adhesion, cell-cell contact, and lateral interdigitation increased, and the cells rearranged to form a monolayer. When the endothelium is functional, it draws water out of the corneal stroma, resulting in a thin cornea. Ouabain, a cardiac glycoside, inhibits the function of the endothelial “ionic pump”, causing an increase in corneal thickness. […] Referring to FIG. 4, pachymetry of transplanted corneas after ouabain treatment is graphically depicted. […]

`C[C@@H]1O[C@@H](O[C@H]2C[C@@H](O)[C@]3(CO)[C@H]4[C@H](O)C[C@]5(C)[C@@H](C6=CC(=O)OC6)CC[C@]5(O)[C@@H]4CC[C@]3(O)C2)[C@H](O)[C@H](O)[C@H]1O` [ouabain]: the “period over which corneal thickness increased to maximum” value (transplanted corneas after 14 days in organ culture) is 2 to 3 h. For the same compound, where the note is “transplants maintained 14 days in organ culture, 5 corneas”, the “corneal thickness measured by pachymetry (FIG. 4)” value is “increased to a level equal to that of corneas denuded of endothelium”.
